Earlier results on 2 compounds are cited in US7897615B2 (Chugai Sciyaku Kabushiki Kaisha, priority 2003, dated 2011).

One data set deals with CPT-I muscle (M) isoform. To be noted: muscle isoform of CPT-I.
Data set [1] relates to human breast cancer cells.

Turning to `CC(C)(COP(=O)(O)OP(=O)(O)OC[C@H]1O[C@@H](n2cnc3c(N)ncnc32)[C@H](O)[C@@H]1OP(=O)(O)O)[C@@H](O)C(=O)NCCC(=O)NCCSC(=O)CC(=O)O` [Malonyl-CoA], the IC50 in the data set with CPT-I muscle (M) isoform was 30 nM.
Consider `CCCCCCCCCCCCCCOc1ccc(C(=O)O)o1` [TOFA, 5-(tetradecyloxy)-2-furoic acid], for which the antitumor activity entry in data set [1] is listed as “does not show any antitumor activity”. In addition, the malonyl-CoA level in data set [1] (breast carcinoma cells) is recorded as 60 % of the control.

One may read the IC50 as the concentration at which inhibition is half-maximal.
